Test results taken from the NIST ThermoML archive (doi:10.1021/je060107n).

Experiment: mn = molality of the nth substance listed, in mol/kg
Settings: 101 kPa, Liquid; for viscosity: Capillary tube (Ostwald / Ubbelohde) method; for speed of sound: Linear variable-path acoustic interferometer; for mass density: Pycnometric method

CC(=O)[O-].CC(=O)[O-].[Mg+2] [magnesium acetate] + O
Settings	mass density [kg/m3]	speed of sound [m/s]	viscosity [mPa·s]
293.15 K, m1 = 0.0414	–	1487.6	–
293.15 K, m1 = 0.0831	–	1497.5	–
293.15 K, m1 = 0.1671	–	1508.3	–
293.15 K, m1 = 0.4247	–	1545.4	–
293.15 K, m1 = 0.646	–	1577.8	–
293.15 K, m1 = 0.8751	–	1609.8	–
293.15 K, m1 = 1.106	–	1639.8	–
293.15 K, m1 = 1.354	–	1665.7	–
293.15 K, m1 = 1.608	–	1697.3	–
293.15 K, m1 = 1.866	–	1725.6	–
293.15 K, m1 = 2.134	–	1754.5	–
293.15 K, m1 = 2.411	–	1782.6	–
293.15 K, m1 = 2.622	–	1798.8	–
293.15 K, m1 = 3.043	–	1832.8	14.98
293.15 K, m1 = 3.437	–	1866.8	24.4
293.15 K, m1 = 3.819	–	1884.3	–
293.15 K, m1 = 4.001	–	–	41.34
293.15 K, m1 = 4.547	–	1917.4	–
293.15 K, m1 = 4.563	–	–	75.04
293.15 K, m1 = 4.929	–	–	97.76
293.15 K, m1 = 5.165	–	1940.8	–
293.15 K, m1 = 5.732	–	1954.7	–
294.9 K, m1 = 2.411	1149	–	–
295.15 K, m1 = 0.4247	1029.4	–	–
295.15 K, m1 = 0.8751	1059.6	–	–
295.4 K, m1 = 0.1671	1010.2	–	–
296 K, m1 = 1.354	1089.6	–	–
296.1 K, m1 = 1.866	1118.6	–	–
297.95 K, m1 = 2.411	1147.7	–	–
298.05 K, m1 = 1.106	1074.8	–	–
298.15 K, m1 = 0.0414	–	1501.7	0.9322
298.15 K, m1 = 0.0831	–	1510.4	0.964
298.15 K, m1 = 0.1671	–	1520.6	1.034
298.15 K, m1 = 0.4247	–	1556.9	1.286
298.15 K, m1 = 0.646	–	1587.3	1.566
298.15 K, m1 = 0.8751	–	1616.2	1.873
298.15 K, m1 = 1.106	–	1645.9	2.31
298.15 K, m1 = 1.354	–	1671.1	2.821
298.15 K, m1 = 1.608	–	1700.3	2.821
298.15 K, m1 = 1.866	–	1727.7	4.32
298.15 K, m1 = 2.134	–	1754.6	5.472
298.15 K, m1 = 2.411	–	1781.9	7.183
298.15 K, m1 = 2.622	–	1797.3	8.354
298.15 K, m1 = 3.043	–	1829.5	12.02
298.15 K, m1 = 3.437	–	1861.2	19.05
298.15 K, m1 = 3.819	–	1878	–
298.15 K, m1 = 4.001	–	–	31.38
298.15 K, m1 = 4.547	–	1908	–
298.15 K, m1 = 4.563	–	–	55
298.15 K, m1 = 4.929	–	–	70.36
298.15 K, m1 = 5.165	–	1929.7	–
298.15 K, m1 = 5.41	–	–	141.2
298.15 K, m1 = 5.732	–	1940.2	–
298.3 K, m1 = 3.043	1175	–	–
298.7 K, m1 = 2.134	1132.2	–	–
298.75 K, m1 = 0.0831	1003.1	–	–
298.8 K, m1 = 3.437	1195.5	–	–
298.85 K, m1 = 0.646	1044	–	–
298.95 K, m1 = 0.8751	1058.5	–	–
299.15 K, m1 = 0.4247	1028.4	–	–
299.2 K, m1 = 2.622	1155.8	–	–
299.3 K, m1 = 1.866	1117.5	–	–
299.55 K, m1 = 5.732	1267.4	–	–
299.6 K, m1 = 0.1671	1009.1	–	–
299.65 K, m1 = 1.354	1088.4	–	–
300.6 K, m1 = 1.608	1103.6	–	–
300.85 K, m1 = 0.0414	999.3	–	–
301 K, m1 = 2.411	1146.5	–	–
301.05 K, m1 = 3.043	1173.8	–	–
301.35 K, m1 = 1.327	1086.4	–	–
301.5 K, m1 = 3.437	1194.2	–	–
301.55 K, m1 = 2.134	1131.1	–	–
301.7 K, m1 = 1.106	1073.7	–	–
301.75 K, m1 = 5.732	1266	–	–
302.05 K, m1 = 2.622	1154.6	–	–
302.05 K, m1 = 3.819	1205.9	–	–
302.25 K, m1 = 0.646	1043	–	–
302.4 K, m1 = 1.866	1116.3	–	–
302.4 K, m1 = 5.165	1249.6	–	–
302.5 K, m1 = 0.0831	1002	–	–
302.55 K, m1 = 0.8751	1057.4	–	–
302.7 K, m1 = 1.354	1087.4	–	–
302.75 K, m1 = 0.4247	1027.2	–	–
302.95 K, m1 = 4.547	1229.9	–	–
303.15 K, m1 = 0.0414	–	1513.4	0.835
303.15 K, m1 = 0.0831	–	1521.5	0.8624
303.15 K, m1 = 0.1671	–	1532.2	0.9234
303.15 K, m1 = 0.4247	–	1567.4	1.141
303.15 K, m1 = 0.646	–	1595.7	1.383
303.15 K, m1 = 0.8751	–	1625.4	1.64
303.15 K, m1 = 1.106	–	1651.6	2.014
303.15 K, m1 = 1.354	–	1676.1	2.446
303.15 K, m1 = 1.608	–	1703	2.446
303.15 K, m1 = 1.866	–	1728.9	3.688
303.15 K, m1 = 2.134	–	1755.5	4.619
303.15 K, m1 = 2.411	–	1781.3	6.056
303.15 K, m1 = 2.622	–	1795.2	6.928
303.15 K, m1 = 3.043	–	1824.8	9.798
303.15 K, m1 = 3.437	–	1855.5	15.2
303.15 K, m1 = 3.819	–	1870.5	–
303.15 K, m1 = 4.001	–	–	24.27
303.15 K, m1 = 4.547	–	1899.1	–
303.15 K, m1 = 4.563	–	–	41.02
303.15 K, m1 = 4.929	–	–	51.77
303.15 K, m1 = 5.165	–	1919	–
303.15 K, m1 = 5.41	–	–	99.4
303.15 K, m1 = 5.732	–	1926.8	135.8
303.3 K, m1 = 0.1671	1008	–	–
303.65 K, m1 = 1.608	1102.5	–	–
303.75 K, m1 = 2.411	1145.4	–	–
303.75 K, m1 = 3.043	1172.5	–	–
303.75 K, m1 = 5.732	1264.8	–	–
303.9 K, m1 = 3.437	1193.1	–	–
304.4 K, m1 = 3.819	1204.7	–	–
304.45 K, m1 = 0.0414	998.24	–	–
304.55 K, m1 = 2.134	1129.8	–	–
304.6 K, m1 = 5.165	1248.3	–	–
304.7 K, m1 = 1.327	1085.2	–	–
304.8 K, m1 = 2.622	1153.3	–	–
304.95 K, m1 = 1.106	1072.5	–	–
305.35 K, m1 = 4.547	1228.6	–	–
